One experiment concerns lens from aged mice. The experiment can be described thus: In vitro lens elasticity, coverslip method, cultured lenses from aged mice. The class given is cell-based, C57BL/6J mice. As to conditions: for Change in Diameter (μm) (Mean ± S.E.): about 14 hours incubation at 37° C., mouse lens; for efficacy compared with positive control groups using lipoic acid: 50 μM and 500 μM; for lens elasticity relative to control: both concentrations of 50 μM and 500 μM; for dose dependence of elasticity increase: from the lower dose (50 μM) to the higher dose (500 μM). How it is done: Test compounds (Examples 46 and 134) at 50 μM and 500 μM, Positive Control of Lipoic Acid at 50 μM and 500 μM, and control treatment were administered to lenses (12 per group) according to methods described in Invest Ophthalmol Vis Sci. 2016; 57:2851-2863. Briefly, seven month old C57BL/6J mice (male) were euthanized by CO2 overdose. Lenses were removed and placed in culture medium. Lenses were incubated for about 2 hours at 37° C. The medium was replaced with fresh medium supplemented with test compounds or with fresh medium. After about 14 hours incubation at 37° C., lenses were removed from culture medium.
Measurement of lens elasticity was performed according to the methods described in Invest Ophthalmol Vis Sci. 2016; 57:2851-2863. Briefly, lenses were placed on slides and photographed. A second photograph was taken after a coverslip was placed on the lens. Equatorial diameters changed by the coverslips placed on the lens were analyzed.

The subject of the next experiment is mouse lens. The experiment can be described thus: Lens elasticity under 2-week repeated topical instillation (TID), coverslip method. The format is in vivo, C57BL/6J mice. The note with it: for Right Eye Change in Diameter (μm) (Mean ± S.E.): treated right eye; for Right Eye Change in Diameter (μm) (Mean ± S.E.) / efficacy compared with 1.5% solutions comprising LACE: TID; for Right Eye Change in Diameter (μm) (Mean ± S.E.) / efficacy compared with 1.5% solutions comprising LACE / elasticity of the mouse lenses: 2 weeks; for efficacy compared with 1.5% solutions comprising LACE: 0.5% and 1.5% solutions; for elasticity of the mouse lenses: repeated instillation of 0.15%, 0.5%, 1.5% solutions TID. On the procedure: Test compounds (Examples 46 and 134), positive control of Lipoic Acid Choline Ester (LACE), and control treatment were topically administered to right eyes according to methods described in Invest Ophthalmol Vis Sci. 2016; 57:2851-2863. Briefly, eight month old C57BL/6J mice (male) were treated with 2.5 μL of each test sample three times per day (TID) at about 4-hour intervals in the right eyes for 2 weeks. The left eyes were used as untreated controls. Each treatment group included 10 mice, and the vehicle group included 5 mice.
Measurement of lens elasticity was performed according to the methods described in Invest Ophthalmol Vis Sci. 2016; 57:2851-2863. Briefly, after 2-week treatment, mice were euthanized by CO2 overdose. Lenses were removed and analyzed for changes in elasticity. Lenses were placed on slides and photographed. A second photograph was taken after a coverslip was placed on the lens. Equatorial diameters changed by the coverslips placed on the lens were analyzed.

[1] abbreviates: Table 2, left eye = untreated control eye of mice given 1.5% solution in right eye.
The mark [2] stands for this setting: Table 3, left eye = untreated control eye of mice given 1.5% solution in right eye.

Molecules are shown by their SMILES.

`O=C(O)CCCC[C@@H]1CCSS1` (racemic) [Lipoic Acid, reference compound]: the “Change in Diameter (μm) (Mean ± S.E.)” value was determined as 63.8 ± 6.5 μm with lens from aged mice (50 μM) and 83.8 ± 7.4 μm with lens from aged mice (500 μM).
Consider `C[N+](C)(C)CCOC(=O)CCCC[C@@H]1CCSS1` [LACE, Lipoic Acid Choline Ester, reference compound], for which the “Right Eye Change in Diameter (μm) (Mean ± S.E.)” value (“Right Eye Change in Diameter” for short) in the experiment on mouse lens (Table 2, 1.5% solution) was determined as 64.5 ± 4.5 μm; with mouse lens (Table 3, 1.5% solution), 60.8 ± 2.9 μm. Moreover, the “Left Eye Change in Diameter (μm) (Mean ± S.E.)” value (shortened to “Left Eye Change in Diameter (μm)”) in the experiment on mouse lens (setting [1]) is 41.5 ± 5.2 μm; in the experiment with mouse lens (setting [2]), 30.1 ± 6.0 μm.
On to `CN(C)C(=O)CNC(=O)c1ccc2c(c1)nc(Nc1nc3ccc(C(F)(F)F)cc3s1)n2C` [Example 134, 1-Methyl-2-(6-trifluoromethyl-benzothiazol-2-ylamino)-1H-benzimidazole-5-carboxylic acid dimethylcarbamoylmethyl-amide], for which the “efficacy compared with positive control groups using lipoic acid” value in the experiment with lens from aged mice is reported as “almost the same”. In addition, the “Change in Diameter (μm) (Mean ± S.E.)” value with lens from aged mice (50 μM) was 59.6 ± 3.4 μm; in the experiment with lens from aged mice (500 μM), 72.3 ± 4.0 μm. In addition, the “lens elasticity relative to control” value in the experiment on lens from aged mice was “significantly increased”. In the experiment on lens from aged mice, the “dose dependence of elasticity increase” value is listed as “dose dependent increase”. Moreover, the “efficacy compared with 1.5% solutions comprising LACE” value with mouse lens is on record as “better than or equivalent to”. In addition, the “Right Eye Change in Diameter” value with mouse lens (Table 2, 0.15% solution) turned out to be 46.0 ± 5.0 μm; in the experiment with mouse lens (Table 2, 0.5% solution), 74.3 ± 8.3 μm; with mouse lens (Table 2, 1.5% solution), 80.0 ± 5.3 μm. Further, the “Left Eye Change in Diameter (μm)” value in the experiment on mouse lens (Table 2, left eye = untreated control eye of mice given 0.15% solution in right eye) is 33.5 ± 5.9 μm; with mouse lens (Table 2, left eye = untreated control eye of mice given 0.5% solution in right eye) it was 51.7 ± 5.3 μm; in the experiment on mouse lens (setting [1]), 39.7 ± 6.5 μm. Further, the “elasticity of the mouse lenses” value in the experiment on mouse lens is given as “significantly increased”.
Take `Cn1c(Nc2nc3ccc(OC(F)(F)F)cc3s2)nc2cc(C(=O)NCCOCCO)ccc21` [Example 46, 1-Methyl-2-(6-trifluoromethoxy-benzothiazol-2-ylamino)-1H-benzoimidazole-5-carboxylic acid [2-(2-hydroxy-ethoxy)-ethyl]-amide]: in the experiment with lens from aged mice, the “efficacy compared with positive control groups using lipoic acid” value is on record as “almost the same”. Also, the “Change in Diameter (μm) (Mean ± S.E.)” value in the experiment with lens from aged mice (50 μM) is on record as 67.4 ± 5.6 μm; in the experiment with lens from aged mice (500 μM), 80.4 ± 5.3 μm. Further, the “lens elasticity relative to control” value in the experiment on lens from aged mice is recorded as “significantly increased”. Besides, in the experiment with lens from aged mice, the “dose dependence of elasticity increase” value is reported as “dose dependent increase”. Also, in the experiment on mouse lens, the “efficacy compared with 1.5% solutions comprising LACE” value is reported as “better than or equivalent to”. Moreover, the “Right Eye Change in Diameter” value in the experiment on mouse lens (Table 3, 0.15% solution) was found to be 42.3 ± 4.0 μm; in the experiment on mouse lens (Table 3, 0.5% solution), 63.2 ± 5.4 μm; in the experiment with mouse lens (Table 3, 1.5% solution), 62.7 ± 3.4 μm. In addition, the “Left Eye Change in Diameter (μm)” value is listed as 32.2 ± 4.3 μm in the experiment with mouse lens (Table 3, left eye = untreated control eye of mice given 0.15% solution in right eye); 34.7 ± 4.5 μm in the experiment on mouse lens (Table 3, left eye = untreated control eye of mice given 0.5% solution in right eye); 41.3 ± 3.9 μm with mouse lens (setting [2]). For the same compound, the “elasticity of the mouse lenses” value in the experiment with mouse lens is recorded as “significantly increased”.
